According to article PMC4742190, “Mitotic entry: Non-genetic heterogeneity exposes the requirement for Plk1” (Oncotarget, 2015):

Experiments:
Assay in all cases: enzyme (kinase) assay
Format in all cases: biochemical
Plk2 = Plk2 (Homo sapiens, UniProt Q9NYY3)
Plk1 = Plk1 (Homo sapiens, UniProt P53350)
Plk3 = Plk3 (Homo sapiens, UniProt Q9H4B4)
Sequence of Plk3 (Q9H4B4 whole entry): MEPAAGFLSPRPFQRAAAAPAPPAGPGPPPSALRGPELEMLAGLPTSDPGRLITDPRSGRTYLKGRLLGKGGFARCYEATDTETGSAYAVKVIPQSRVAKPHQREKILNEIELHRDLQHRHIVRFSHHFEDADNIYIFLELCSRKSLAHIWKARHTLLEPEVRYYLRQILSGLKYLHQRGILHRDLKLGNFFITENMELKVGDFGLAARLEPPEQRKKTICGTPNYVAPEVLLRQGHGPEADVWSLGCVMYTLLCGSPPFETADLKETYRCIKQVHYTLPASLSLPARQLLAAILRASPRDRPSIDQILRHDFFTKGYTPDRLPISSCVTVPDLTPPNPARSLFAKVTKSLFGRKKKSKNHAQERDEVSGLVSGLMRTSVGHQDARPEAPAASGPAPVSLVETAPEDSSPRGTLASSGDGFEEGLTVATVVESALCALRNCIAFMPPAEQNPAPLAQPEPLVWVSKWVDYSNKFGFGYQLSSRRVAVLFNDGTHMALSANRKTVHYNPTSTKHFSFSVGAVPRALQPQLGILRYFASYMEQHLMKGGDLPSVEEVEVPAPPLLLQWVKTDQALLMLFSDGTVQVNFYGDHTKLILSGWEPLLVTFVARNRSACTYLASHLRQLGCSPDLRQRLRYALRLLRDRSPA

Sequence of Plk2 (Q9NYY3 whole entry): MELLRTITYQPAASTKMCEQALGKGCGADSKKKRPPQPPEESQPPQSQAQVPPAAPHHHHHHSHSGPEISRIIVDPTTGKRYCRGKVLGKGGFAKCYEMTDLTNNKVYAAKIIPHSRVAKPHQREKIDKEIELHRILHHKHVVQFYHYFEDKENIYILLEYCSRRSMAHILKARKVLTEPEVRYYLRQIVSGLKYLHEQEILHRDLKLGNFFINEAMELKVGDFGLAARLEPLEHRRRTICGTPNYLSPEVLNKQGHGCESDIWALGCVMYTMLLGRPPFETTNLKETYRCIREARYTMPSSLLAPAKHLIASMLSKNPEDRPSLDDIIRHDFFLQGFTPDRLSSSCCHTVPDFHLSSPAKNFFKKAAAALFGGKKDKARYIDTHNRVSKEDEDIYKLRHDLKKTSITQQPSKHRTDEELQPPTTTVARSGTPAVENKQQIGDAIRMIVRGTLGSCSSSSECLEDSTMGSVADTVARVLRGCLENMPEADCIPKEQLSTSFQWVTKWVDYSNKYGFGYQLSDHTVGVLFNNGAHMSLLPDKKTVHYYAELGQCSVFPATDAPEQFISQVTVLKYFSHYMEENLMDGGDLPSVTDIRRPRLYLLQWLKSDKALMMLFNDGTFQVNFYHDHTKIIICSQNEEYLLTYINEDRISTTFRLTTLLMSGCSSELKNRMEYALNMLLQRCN
Sequence of Plk1 (P53350 2-603): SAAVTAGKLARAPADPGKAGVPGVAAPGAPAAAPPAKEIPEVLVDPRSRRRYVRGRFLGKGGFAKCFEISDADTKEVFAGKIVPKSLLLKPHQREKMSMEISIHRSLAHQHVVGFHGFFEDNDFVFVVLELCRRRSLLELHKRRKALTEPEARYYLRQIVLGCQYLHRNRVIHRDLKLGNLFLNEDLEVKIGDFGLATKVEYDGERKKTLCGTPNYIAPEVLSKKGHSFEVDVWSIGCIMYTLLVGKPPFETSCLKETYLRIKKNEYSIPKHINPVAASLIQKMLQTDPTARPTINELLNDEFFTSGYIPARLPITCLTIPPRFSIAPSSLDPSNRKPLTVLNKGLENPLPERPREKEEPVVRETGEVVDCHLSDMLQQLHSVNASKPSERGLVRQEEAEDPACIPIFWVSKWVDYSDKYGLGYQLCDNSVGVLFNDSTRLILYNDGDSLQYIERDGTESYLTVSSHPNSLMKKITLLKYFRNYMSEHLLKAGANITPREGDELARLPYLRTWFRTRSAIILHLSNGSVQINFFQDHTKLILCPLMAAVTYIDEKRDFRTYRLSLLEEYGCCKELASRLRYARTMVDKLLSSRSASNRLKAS

- IC50 (Plk2): 113 nM
- IC50 (Plk1): 36 nM
- IC50 (Plk3): 702 nM
Substance: CYC140844
